Assay [1] deals with T1, human farnesyl transferase (Homo sapiens, UniProt P49354+P49356).
T1 construct: human farnesyl transferase purified from THP1 cell cultures; endogenous in cells; host or cells: THP1 cells (enzyme purified from the cultures)
Description: inhibition of farnesyl transferase (transfer of [3H]farnesyl from [3H]FPP to p21 H-Ras). In kind it is biochemical. The conditions noted are these: p21 H-Ras substrate, 20 minutes at 37° C.; 9 concentrations; read-out: Inhibitory activity IC50. The protocol:
Farnesyl transferase activity is determined by the quantity of [^3 H]farnesyl transferred from [^3 H]farnesyl pyrophosphate [[^3 H]FPP) to the p21 H-Ras protein. The standard reaction mixture is composed, for a final volume of 60 μl, of 50 mM Tris-HCl, 5 mM MgCl2, 5 mM dithiotreitol, 0.2% octyl β-D-glucopyranoside, 200 picomol p21 H-ras, 4.5 picomol [^3 H]FPP (activity 61000 dpm/picomol).
Reaction is initiated by adding approximately 5 ng of human farnesyl transferase purified from THP1 cell cultures. After incubation for 20 minutes at 37° C. in a microtitration plate containing 96 1-cm^3 wells per plate (Titer Plate®, Beckman), the reaction is stopped by adding 0.4 cm^3 of 0.1% SDS in methanol at 0° C. The mixture is then treated with 0.4 cm^3 of 30% trichloroacetic acid (TCA) in methanol. The plates are left in ice for 1 hour. […] The membranes are dried in a microwave oven, then impregnated with scintillation medium by melting of Meltilex® (Pharmacia) under hot air, and lastly counted in cpm in a β-Plate counter® (LKB). […]
The percentage inhibition values are obtained by comparison of the tests with and without inhibitor after deduction of blanks, the IC50 values being measured on the basis of the inhibitions obtained with 9 different concentrations using Enzfitter® or Grafit® software.

Assay [2] deals with farnesylation of the Ras protein in THAC line (CCL 39 cells transfected with activated Ha-Ras). In words: activity against cells: inhibition of farnesylation of the Ras protein in THAC cells (Western blot). It is filed as cell-based. To be noted: CCL39, 24 hours at 37° C. Here is the method:
The activity against cells can be determined in the following way:
The cell line is the THAC line (CCL 39 cells transfected with activated Ha-Ras) according to K. Seuwen et al., EMBO J., 7(1) 161-168 (1988). The cells are cultured in Petri dishes with a diameter of 6 cm containing a DMEM medium, 5% foetal calf serum and 1% G418.
After culturing for 24 hours, the culture medium is changed (with or without the serum).and the product to be studied is added in solution in dimethylformamide (DMF), in the presence or in the absence of DTT (final concentrations of 0.5% in DMF and 0.1 mM in DTT). After culturing for 24 hours at 37° C., the cells are lysed in 1 cm^3 of lysis buffer (20 mM Tris, HCl, 1% Triton X114, 5 mM MgCl2, 7 mM DTT, 150 mM NaCl, pH=7.4). The lysates are clarified by centrifuging at 4000 revolutions/minute for 10 minutes. […] The radioactivity of the bands corresponding to farnesylated Ras and to non-farnesylated Ras makes it possible to determine the percentage of inhibition of farnesylation of the Ras protein.

Structures can show the parent of a compound that is named as a salt. Bounds are passed on as bounds.

For orientation: IC50 means the midpoint of a concentration-inhibition curve. By inhibition is commonly meant the change of the read-out against control, counted positive when it falls. Regarding `COC(=O)[C@H](CCSC)NC(=O)C1CCCc2c(NC[C@@H](N)CS)cccc21` (stereo partly drawn) [Example 1, trifluoroacetate of the methyl ester of N-[5-(2(R)-amino-3-mercapto-propylamino)-1,2,3,4-tetrahydronaphthyl-1(R,S)-carbonyl]-(L)-methionine], the IC50 in assay [1] is 15 nM. This compound also showed an inhibition at 10 µM in assay [2] (10 μM) of more than 10%.
In the case of `CSCC[C@H](NC(=O)C1CCCc2c(NC[C@@H](N)CS)cccc21)C(=O)O` (stereo partly drawn) [Example 2, trifluoroacetate of N-[5-(2(R)-amino-3-mercaptopropylamino)-1,2,3,4-tetrahydronaphthyl-1(R,S)-carbonyl]-(L)-methionine], in assay [1], the IC50 turned out to be 405 nM. The compound also yielded an inhibition at 50 µM in assay [2] (50 μM) of 50%.
